Drawing on ChEMBL document CHEMBL5465560, “Selectivity Literature for EUbOPEN Chemogenomic Library” (2024), this text covers % of control, % binding and dTM for eleven compounds.

For test [1], the target named is 5'-AMP-activated protein kinase catalytic subunit alpha-2 (Homo sapiens) (UniProt P54646). The settings on record: at 10 µM.
The target in test [2] is Serine/threonine-protein kinase SIK2 (Homo sapiens) (UniProt Q9H0K1). Put plainly: Selectivity interaction (Ambit KINOMEscan and KiNATiv profiling in Jurkat cells) EUB0000090b SIK2. The class given is cell-based. Conditions: at 1 µM.
For test [3], the target named is Receptor tyrosine-protein kinase erbB-2 (Homo sapiens, UniProt P04626). Put plainly: Selectivity interaction (KinomeScan (DiscoverX)) EUB0001049a ERBB2. Conditions: at 1 µM.
Test [4] addresses T1, Serine/threonine-protein kinase LATS2 (Homo sapiens) (UniProt Q9NRM7).
T1 sequence (whole entry): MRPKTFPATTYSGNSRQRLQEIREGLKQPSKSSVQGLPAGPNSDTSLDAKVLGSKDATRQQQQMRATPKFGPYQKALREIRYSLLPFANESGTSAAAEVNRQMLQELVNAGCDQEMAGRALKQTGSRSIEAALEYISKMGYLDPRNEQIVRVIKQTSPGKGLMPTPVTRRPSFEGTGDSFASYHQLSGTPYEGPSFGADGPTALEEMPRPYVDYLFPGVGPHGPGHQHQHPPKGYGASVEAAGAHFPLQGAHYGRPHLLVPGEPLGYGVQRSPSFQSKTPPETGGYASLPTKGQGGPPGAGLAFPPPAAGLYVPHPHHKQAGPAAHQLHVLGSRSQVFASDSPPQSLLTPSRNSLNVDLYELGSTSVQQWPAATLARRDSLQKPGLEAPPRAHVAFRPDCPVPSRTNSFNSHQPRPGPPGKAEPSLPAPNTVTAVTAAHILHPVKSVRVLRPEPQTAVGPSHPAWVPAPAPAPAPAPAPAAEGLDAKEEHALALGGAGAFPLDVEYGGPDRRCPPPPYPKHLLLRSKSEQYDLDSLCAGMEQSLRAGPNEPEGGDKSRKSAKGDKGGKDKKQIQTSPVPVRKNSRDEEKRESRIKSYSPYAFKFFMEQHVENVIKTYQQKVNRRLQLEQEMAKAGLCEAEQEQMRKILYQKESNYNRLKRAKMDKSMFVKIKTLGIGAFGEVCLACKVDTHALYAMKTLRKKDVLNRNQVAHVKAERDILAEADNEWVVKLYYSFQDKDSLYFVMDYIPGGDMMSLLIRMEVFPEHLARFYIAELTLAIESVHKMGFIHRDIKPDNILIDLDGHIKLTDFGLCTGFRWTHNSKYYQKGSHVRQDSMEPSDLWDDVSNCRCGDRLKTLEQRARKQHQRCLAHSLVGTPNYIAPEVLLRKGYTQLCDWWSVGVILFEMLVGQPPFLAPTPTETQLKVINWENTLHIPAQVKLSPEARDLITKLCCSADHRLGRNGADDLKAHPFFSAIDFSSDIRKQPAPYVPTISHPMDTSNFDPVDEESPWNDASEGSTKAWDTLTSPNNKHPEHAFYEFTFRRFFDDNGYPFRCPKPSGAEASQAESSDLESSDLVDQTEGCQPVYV
Briefly: Selectivity interaction (KinomeScan (DiscoverX)) EUB0001049a LATS2. Conditions: at 1 µM.

Test [5] concerns the target Endothelin-1 receptor (Homo sapiens) (UniProt P25101). Put plainly: Selectivity interaction (Eurofins CEREP Diversity Profile (receptors and ion channels)) EUB0000279b EDNRA. The settings on record: at 10 µM.
Test [6] concerns the target Tyrosine-protein kinase SYK (Homo sapiens, UniProt P43405). Put plainly: Selectivity interaction (KinomeScan (DiscoverX)) EUB0000045b SYK.
The target in test [7] is Serine/threonine-protein kinase PAK 1 (Homo sapiens) (UniProt Q13153). Briefly: Selectivity interaction (Kinase panel (Z-LYTE Assay)) EUB0001632a PAK1. The settings on record: at 10 µM.
Test [8] relates to Tyrosine-protein kinase ABL1 (Homo sapiens), P00519 [Q252H]. Briefly: Selectivity interaction (KinomeScan (DiscoverX)) EUB0000607a ABL1. The settings on record: at 10 µM.
Test [9] addresses T2, Ephrin type-A receptor 8 (Homo sapiens) (UniProt P29322).
T2 sequence (whole entry): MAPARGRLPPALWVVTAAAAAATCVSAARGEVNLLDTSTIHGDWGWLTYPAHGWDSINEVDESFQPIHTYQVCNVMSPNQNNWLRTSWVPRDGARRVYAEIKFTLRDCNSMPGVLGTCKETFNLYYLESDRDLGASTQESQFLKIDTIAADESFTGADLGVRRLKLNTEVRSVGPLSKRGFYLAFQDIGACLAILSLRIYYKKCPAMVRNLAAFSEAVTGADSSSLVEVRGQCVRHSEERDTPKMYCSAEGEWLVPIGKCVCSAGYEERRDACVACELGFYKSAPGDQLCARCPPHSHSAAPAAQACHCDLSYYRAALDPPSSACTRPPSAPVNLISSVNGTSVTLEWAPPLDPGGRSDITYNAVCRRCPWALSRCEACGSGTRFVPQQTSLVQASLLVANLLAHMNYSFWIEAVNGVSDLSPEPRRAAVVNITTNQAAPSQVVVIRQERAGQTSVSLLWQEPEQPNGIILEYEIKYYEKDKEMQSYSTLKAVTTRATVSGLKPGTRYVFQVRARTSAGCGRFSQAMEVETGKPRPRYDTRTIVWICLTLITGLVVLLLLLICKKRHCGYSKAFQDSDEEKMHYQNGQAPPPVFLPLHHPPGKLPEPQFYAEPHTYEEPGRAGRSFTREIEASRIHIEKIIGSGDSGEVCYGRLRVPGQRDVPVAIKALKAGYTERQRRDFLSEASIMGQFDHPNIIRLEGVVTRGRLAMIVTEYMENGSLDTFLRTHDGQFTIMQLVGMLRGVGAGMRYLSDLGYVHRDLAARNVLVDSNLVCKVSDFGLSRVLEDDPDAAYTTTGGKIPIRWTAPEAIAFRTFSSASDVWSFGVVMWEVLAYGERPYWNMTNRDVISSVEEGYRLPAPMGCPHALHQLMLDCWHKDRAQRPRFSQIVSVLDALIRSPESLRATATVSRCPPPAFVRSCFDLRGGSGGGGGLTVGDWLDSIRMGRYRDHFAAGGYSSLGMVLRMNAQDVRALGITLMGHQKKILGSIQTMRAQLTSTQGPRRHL
Put plainly: Selectivity interaction (KinomeScan (DiscoverX)) EUB0000607a EPHA8. Conditions: at 10 µM.

For test [10], the target named is Serine/threonine-protein kinase 32C (Homo sapiens) (UniProt Q86UX6). Briefly: Selectivity interaction (KinomeScan (DiscoverX)) EUB0000607a STK32C. Conditions: at 10 µM.
The target in test [11] is Dual specificity protein kinase CLK2 (Homo sapiens, UniProt P49760). Put plainly: Selectivity interaction (KinomeScan (DiscoverX)) EUB0000229b CLK2. Conditions: at 10 µM.
The target of test [12] is Dual specificity protein kinase CLK3 (Homo sapiens, UniProt P49761). Briefly: Selectivity interaction (Kinase panel (DSF assay)) EUB0001559a CLK3. A general note: In DSF a fluorescence change marks the thermal transition of the protein.
For test [13], the target named is Phosphatidylinositol 4-phosphate 5-kinase type-1 alpha (Homo sapiens) (UniProt Q99755). Conditions: at 10 µM.
Test [14] concerns the target Cyclin-dependent kinase 3 (Homo sapiens) (UniProt Q00526). Put plainly: Selectivity interaction (KinomeScan (DiscoverX)) EUB0000618a CDK3. The settings on record: at 10 µM.

Structures are written as SMILES.

Chain of Dual specificity protein kinase CLK3 (P49761 whole entry, looked up): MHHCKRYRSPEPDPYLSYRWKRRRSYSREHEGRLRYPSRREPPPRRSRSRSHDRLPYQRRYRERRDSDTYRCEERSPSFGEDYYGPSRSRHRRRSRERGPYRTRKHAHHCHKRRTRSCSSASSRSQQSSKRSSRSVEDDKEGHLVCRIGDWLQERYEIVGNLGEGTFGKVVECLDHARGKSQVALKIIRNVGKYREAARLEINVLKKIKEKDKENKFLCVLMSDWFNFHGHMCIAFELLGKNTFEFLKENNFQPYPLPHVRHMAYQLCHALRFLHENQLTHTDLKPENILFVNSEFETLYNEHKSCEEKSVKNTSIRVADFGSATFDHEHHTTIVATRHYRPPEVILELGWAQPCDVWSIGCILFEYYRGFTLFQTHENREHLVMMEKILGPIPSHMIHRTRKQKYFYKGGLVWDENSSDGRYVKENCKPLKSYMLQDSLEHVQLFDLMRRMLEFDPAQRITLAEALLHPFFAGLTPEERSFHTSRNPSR
Chain of Serine/threonine-protein kinase SIK2 (Homo sapiens) (Q9H0K1 whole entry, looked up): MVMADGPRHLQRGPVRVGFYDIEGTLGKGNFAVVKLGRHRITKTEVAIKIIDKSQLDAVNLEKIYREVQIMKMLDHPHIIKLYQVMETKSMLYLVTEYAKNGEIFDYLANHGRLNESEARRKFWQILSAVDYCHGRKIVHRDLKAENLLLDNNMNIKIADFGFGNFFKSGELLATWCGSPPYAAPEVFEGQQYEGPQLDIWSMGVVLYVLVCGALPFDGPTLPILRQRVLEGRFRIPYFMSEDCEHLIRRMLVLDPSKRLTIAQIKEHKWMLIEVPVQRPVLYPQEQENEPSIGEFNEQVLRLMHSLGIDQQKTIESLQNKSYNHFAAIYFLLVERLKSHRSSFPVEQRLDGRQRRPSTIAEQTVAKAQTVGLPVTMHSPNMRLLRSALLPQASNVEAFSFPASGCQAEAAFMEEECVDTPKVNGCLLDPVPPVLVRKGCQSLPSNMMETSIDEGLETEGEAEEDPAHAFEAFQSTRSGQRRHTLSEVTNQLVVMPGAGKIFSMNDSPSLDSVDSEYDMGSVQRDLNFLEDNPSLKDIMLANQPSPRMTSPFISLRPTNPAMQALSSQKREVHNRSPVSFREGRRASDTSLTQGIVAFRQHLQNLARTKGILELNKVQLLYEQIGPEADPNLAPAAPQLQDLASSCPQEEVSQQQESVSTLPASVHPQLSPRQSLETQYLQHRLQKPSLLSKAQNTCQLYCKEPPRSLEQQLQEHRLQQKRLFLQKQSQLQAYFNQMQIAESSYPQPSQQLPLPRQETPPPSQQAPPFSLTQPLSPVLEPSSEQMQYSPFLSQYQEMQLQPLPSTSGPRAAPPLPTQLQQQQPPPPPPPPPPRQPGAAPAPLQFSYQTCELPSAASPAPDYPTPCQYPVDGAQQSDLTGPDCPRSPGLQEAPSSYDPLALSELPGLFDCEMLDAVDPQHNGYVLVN
Chain of Receptor tyrosine-protein kinase erbB-2 (P04626 whole entry): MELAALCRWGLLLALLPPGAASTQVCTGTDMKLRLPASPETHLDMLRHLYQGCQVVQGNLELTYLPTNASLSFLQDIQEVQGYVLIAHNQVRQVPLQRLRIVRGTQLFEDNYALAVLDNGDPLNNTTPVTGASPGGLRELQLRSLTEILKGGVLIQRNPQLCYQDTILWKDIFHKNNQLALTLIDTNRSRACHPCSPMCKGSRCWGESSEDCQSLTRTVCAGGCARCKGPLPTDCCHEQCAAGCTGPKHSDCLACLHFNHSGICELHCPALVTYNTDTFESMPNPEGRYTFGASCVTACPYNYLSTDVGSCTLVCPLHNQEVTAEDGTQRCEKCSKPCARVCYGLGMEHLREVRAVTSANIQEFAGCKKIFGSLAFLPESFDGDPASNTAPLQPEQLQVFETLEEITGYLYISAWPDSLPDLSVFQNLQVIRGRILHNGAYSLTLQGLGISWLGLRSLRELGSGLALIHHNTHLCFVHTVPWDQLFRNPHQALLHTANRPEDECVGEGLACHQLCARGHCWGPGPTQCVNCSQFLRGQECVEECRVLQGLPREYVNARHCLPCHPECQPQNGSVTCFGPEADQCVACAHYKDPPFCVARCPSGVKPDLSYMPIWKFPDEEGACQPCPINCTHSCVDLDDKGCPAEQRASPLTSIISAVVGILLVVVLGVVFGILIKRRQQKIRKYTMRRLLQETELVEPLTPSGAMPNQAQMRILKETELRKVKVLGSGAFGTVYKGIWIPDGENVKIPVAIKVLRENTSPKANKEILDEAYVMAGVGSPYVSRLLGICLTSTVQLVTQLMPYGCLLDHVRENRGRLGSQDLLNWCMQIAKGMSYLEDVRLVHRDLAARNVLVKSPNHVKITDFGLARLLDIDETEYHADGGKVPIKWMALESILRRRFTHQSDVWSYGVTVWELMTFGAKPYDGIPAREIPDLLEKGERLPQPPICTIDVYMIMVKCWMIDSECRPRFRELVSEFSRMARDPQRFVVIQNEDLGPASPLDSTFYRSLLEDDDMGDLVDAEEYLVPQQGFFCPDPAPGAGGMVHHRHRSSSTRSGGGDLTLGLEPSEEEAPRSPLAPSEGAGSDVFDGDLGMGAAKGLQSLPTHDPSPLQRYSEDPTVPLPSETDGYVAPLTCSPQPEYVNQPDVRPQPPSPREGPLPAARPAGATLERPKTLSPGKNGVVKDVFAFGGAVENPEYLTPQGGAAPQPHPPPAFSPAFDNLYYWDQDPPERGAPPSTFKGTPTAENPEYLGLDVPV
Chain of Serine/threonine-protein kinase PAK 1 (Homo sapiens) (Q13153 whole entry): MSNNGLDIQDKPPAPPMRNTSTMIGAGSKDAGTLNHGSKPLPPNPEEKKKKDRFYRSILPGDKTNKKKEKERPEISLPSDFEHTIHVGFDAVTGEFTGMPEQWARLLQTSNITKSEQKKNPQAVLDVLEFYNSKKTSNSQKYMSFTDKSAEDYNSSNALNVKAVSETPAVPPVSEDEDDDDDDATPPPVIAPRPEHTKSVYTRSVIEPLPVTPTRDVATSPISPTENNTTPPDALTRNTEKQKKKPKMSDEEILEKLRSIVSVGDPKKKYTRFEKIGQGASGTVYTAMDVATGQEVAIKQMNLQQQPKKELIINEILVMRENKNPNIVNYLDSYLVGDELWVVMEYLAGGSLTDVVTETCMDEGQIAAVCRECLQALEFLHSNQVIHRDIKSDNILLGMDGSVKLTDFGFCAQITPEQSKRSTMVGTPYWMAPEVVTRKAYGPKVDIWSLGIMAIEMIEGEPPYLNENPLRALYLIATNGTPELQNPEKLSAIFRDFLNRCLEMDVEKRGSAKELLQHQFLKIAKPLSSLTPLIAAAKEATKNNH
Chain of 5'-AMP-activated protein kinase catalytic subunit alpha-2 (Homo sapiens) (P54646 whole entry, looked up): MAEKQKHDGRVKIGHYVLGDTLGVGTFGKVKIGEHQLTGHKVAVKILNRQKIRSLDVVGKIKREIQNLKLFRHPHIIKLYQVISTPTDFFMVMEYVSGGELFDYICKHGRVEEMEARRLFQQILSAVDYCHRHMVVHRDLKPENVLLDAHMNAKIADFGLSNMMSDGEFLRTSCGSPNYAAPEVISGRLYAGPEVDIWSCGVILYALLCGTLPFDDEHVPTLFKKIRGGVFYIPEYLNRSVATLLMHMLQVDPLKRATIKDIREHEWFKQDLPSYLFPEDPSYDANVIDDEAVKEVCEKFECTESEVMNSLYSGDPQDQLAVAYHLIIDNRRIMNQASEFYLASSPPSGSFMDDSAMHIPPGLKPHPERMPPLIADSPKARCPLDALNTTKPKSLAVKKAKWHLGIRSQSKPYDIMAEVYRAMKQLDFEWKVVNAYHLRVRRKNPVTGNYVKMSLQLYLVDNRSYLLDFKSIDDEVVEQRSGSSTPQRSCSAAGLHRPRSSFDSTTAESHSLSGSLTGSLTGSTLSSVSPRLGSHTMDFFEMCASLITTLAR
Chain of Serine/threonine-protein kinase 32C (Homo sapiens) (Q86UX6 whole entry): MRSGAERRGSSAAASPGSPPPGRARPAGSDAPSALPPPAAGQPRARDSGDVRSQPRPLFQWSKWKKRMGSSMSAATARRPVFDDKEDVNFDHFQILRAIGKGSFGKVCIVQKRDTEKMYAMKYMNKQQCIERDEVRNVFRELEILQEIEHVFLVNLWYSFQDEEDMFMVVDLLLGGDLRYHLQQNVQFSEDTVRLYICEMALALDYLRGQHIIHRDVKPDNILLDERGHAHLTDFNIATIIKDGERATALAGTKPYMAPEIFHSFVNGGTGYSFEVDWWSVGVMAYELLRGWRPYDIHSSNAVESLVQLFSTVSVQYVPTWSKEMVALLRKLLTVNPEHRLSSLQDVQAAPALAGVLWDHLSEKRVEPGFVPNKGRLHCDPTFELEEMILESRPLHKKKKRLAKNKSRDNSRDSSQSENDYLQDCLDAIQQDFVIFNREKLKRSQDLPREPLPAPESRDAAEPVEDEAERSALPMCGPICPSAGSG
Chain of Phosphatidylinositol 4-phosphate 5-kinase type-1 alpha (Homo sapiens) (Q99755 whole entry): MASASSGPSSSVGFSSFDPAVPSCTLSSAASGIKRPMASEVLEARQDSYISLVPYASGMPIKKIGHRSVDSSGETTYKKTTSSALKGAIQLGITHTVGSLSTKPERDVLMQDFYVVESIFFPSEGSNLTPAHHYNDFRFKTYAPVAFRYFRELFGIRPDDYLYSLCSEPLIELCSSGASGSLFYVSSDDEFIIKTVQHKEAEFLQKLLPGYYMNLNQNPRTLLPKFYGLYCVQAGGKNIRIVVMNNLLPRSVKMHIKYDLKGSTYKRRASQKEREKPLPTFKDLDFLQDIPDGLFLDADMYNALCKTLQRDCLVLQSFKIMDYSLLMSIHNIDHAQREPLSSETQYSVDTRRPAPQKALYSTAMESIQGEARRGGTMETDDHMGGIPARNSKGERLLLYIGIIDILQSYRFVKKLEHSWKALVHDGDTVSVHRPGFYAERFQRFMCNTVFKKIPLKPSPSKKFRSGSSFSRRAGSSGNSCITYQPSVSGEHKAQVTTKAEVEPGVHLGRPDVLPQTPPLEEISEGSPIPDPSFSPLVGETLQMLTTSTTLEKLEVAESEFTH

In the case of `Cc1cc([C@@H](C)Nc2ccccc2C(=O)O)c2nc(N3CCOCC3)cc(=O)n2c1` [AZD-6482], in [1], the % of control was 88%.

Turning to `CN(C)C/C=C/C(=O)Nc1ccc(C(=O)N2CCCC(Nc3ncc(Cl)c(-c4c[nH]c5ccccc45)n3)C2)cc1` (stereo not given), the % of control in test [2] came out at 93%.

In the case of `COc1cc(Nc2nc(C)cc(-c3cnn4nc(OC)ccc34)n2)cc(C(F)(F)F)c1`, the % of control in [3] amounted to 100%; in test [4], 71%.

As for `CC(=O)c1cc(-c2ccccc2OCC2CC2)c2ncccn12`, the % of control in test [5] amounted to 85%.

For the compound `C=CC(=O)Nc1cc(-n2c(=O)ccc3cnc4ccc(-c5ccc(NS(C)(=O)=O)cc5)cc4c32)ccc1C`, the % of control in [6] (at 1 µM) worked out at 100%; in test [6] (at 10 µM) it was 96%.

Take `Cn1cc(-n2cnc3c(NCc4nc5cc(Cl)c(Cl)cc5[nH]4)nc(N4CCOCC4)nc32)cn1`: the % of control in test [7] was -0.498%.

Take `CNC(=O)Nc1ccc(-c2nc(N3CC4CCC(C3)O4)c3cnn(C4CCC5(CC4)OCCO5)c3n2)cc1`: the results for the % of control in test [8], in [9] and in test [10] were 100%, 81% and 90%, respectively.

For `COc1cc(N(C)c2ccnc3ccc(C(F)(F)F)cc23)cc(OC)c1OC`, in test [11], the % binding was determined as 85%.

For `CN(C(=O)c1cnn2cccnc12)c1cc2c(cc1N1CCOCC1)C(=O)N(C[C@@H](F)C(C)(C)O)C2`, in test [12], the dTM came to 0 K.

Take `COCC(=O)NC/C=C/c1ccc2ncnc(Nc3ccc(Oc4ccc(C)nc4)c(C)c3)c2c1` [CP-724714]: the % of control in [13] worked out at 88%.

Turning to `O[C@H]1CC[C@H](Nc2ncc3nc(Nc4c(F)cc(F)cc4F)n([C@H]4CCOC4)c3n2)CC1`, the % of control in [14] worked out at 100%.
